Measured values reported in patent publication US11384079B2, “6-5 fused rings as C5a inhibitors” (CHEMOCENTRYX, INC., priority 2017, dated 2022).

Target: T1, C5aR (Homo sapiens, UniProt P21730)
T1 construct: U937 cells are a monocytic cell line which express C5aR; host or cells: U937 cells (cAMP treated) or isolated neutrophils
T1 sequence (P21730 1-350): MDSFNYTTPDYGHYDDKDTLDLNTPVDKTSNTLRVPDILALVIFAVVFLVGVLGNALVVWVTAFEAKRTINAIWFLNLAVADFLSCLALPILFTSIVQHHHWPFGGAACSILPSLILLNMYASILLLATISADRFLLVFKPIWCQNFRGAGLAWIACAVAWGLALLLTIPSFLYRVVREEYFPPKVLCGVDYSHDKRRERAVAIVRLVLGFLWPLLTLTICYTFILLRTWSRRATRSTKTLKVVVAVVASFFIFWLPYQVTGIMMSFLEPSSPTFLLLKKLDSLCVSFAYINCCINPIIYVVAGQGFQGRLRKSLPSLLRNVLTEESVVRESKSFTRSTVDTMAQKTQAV
Assay: chemotaxis assay (C5aR mediated migration)
Type: cell-based
Conditions: migration of U937 or neutrophil cells toward C5a (0.03 nM), 1.5 hours at 37° C., read-out: Mig IC50
Method: U937 cells are a monocytic cell line which express C5aR, and are available from ATCC (VA). […] Cells were grown under 5% CO2/95% air, 100% humidity at 37° C. and subcultured twice weekly at 1:6 (cells were cultured at a density range of 1×10^5 to 2×10^6 cells/mL) and harvested at 1×10^6 cells/mL. Prior to assay, cells are treated overnight with 0.5 mM of cyclic AMP (Sigma, Ohio) and washed once prior to use. cAMP treated U937 cells can be used in C5aR ligand binding and functional assays.
Optionally, human or murine neutrophils can be used to assay for compound activity. Neutrophils may be isolated from fresh human blood using density separation and centrifugation. Briefly, whole blood is incubated with equal parts 3% dextran and allowed to separate for 45 minutes. After separation, the top layer is layered on top of 15 mls of Ficoll (15 mls of Ficoll for every 30 mls of blood suspension) and centrifuged for 30 minutes at 400×g with no brake. The pellet at the bottom of the tube is then isolated and resuspended into PharmLyse RBC Lysis Buffer (BD Biosciences, San Jose, Calif.) after which the sample is again centrifuged for 10 minutes at 400×g with brake. The remaining cell pellet is resuspended as appropriate and consists of isolated neutrophils.
Optionally, compounds may be further assayed for their ability to inhibit chemotaxis in cells. Chemotaxis assays are performed using 5 μm pore polycarbonate, polyvinylpyrrolidone-coated filters in 96-well chemotaxis chambers (Neuroprobe; Gaithersburg, Md.) using chemotaxis buffer (Hank's balanced salt solution (HBSS) and 1% FBS). C5aR ligands (i.e., C5a, R&D Systems; Minneapolis, Minn.) are use to evaluate compound mediated inhibition of C5aR mediated migration. Other chemokines (i.e., SDF-1α; R&D Systems; Minneapolis, Minn.) are used as specificity controls. […] The chambers are incubated 1.5 hours at 37° C., and the number of cells in the lower chamber quantified either by direct cell counts in five high powered fields per well or by the CyQuant assay (Molecular Probes), a fluorescent dye method that measures nucleic acid content and microscopic observation.

| IC50 [nM] | SMILES |
| --- | --- |
| 5 to 50 | Cc1cccc(C)c1-n1nc2c(c1-c1ncc(Cl)c3[nH]ccc13)CN(c1ncc(C3CC3)cn1)CC2 [Example 1.001] |
| 5 to 50 | COc1c(F)cc(-c2c3c(nn2-c2c(C)cccc2F)CCN(c2ncc(C(F)(F)F)cn2)C3)c2cc[nH]c12 [Example 1.002] |
| < 5 | COc1c(F)cc(-c2c3c(nn2-c2c(C)cccc2C)CCN(c2ncc(C4CC4)cn2)C3)c2cc[nH]c12 [Example 1.003] |
| 5 to 50 | COc1c(F)cc(-c2c3c(nn2-c2c(C)cccc2C)CCN(c2ncc(C(F)(F)F)cn2)C3)c2cc[nH]c12 [Example 1.004] |
| < 5 | CCc1cccc(CC)c1-n1nc2c(c1-c1nccc3[nH]cc(Cl)c13)CN(c1ncc(C(F)(F)F)cn1)CC2 [Example 1.005] |
| 5 to 50 | COc1cccc(C)c1-n1nc2c(c1-c1ccc3[nH]ccc3c1)CN(c1cc(C(C)(C)C)ccc1C)CC2 [Example 1.006] |
| 50 to 500 | COc1cccc(F)c1-n1nc2c(c1-c1cc(F)c(OC)c3[nH]ccc13)CN(c1ncc(C(F)(F)F)cn1)CC2 [Example 1.007] |
| < 5 | CCc1cccc(CC)c1-n1nc2c(c1-c1ncc(Cl)c3[nH]ccc13)CN(c1ncc(C(F)(F)F)cn1)CC2 [Example 1.008] |
| 50 to 500 | CCc1cccc(CC)c1-n1nc2c(c1-c1ccc3[nH]cnc3c1Cl)CN(c1ncc(C(F)(F)F)cn1)CC2 [Example 1.009] |
| > 500 | CCc1cccc(CC)c1-n1nc2c(c1-c1ccc3[nH]ccc3n1)CN(c1ncc(C(F)(F)F)cn1)CC2 [Example 1.010] |
| > 500 | CCc1cccc(CC)c1-n1nc2c(c1-c1cnc3[nH]ccc3c1)CN(c1ncc(C(F)(F)F)cn1)CC2 [Example 1.011] |
| 50 to 500 | CCc1cccc(CC)c1-n1nc2c(c1-c1cc3cc[nH]c3cn1)CN(c1ncc(C(F)(F)F)cn1)CC2 [Example 1.012] |
| 5 to 50 | CCc1cccc(CC)c1-n1nc2c(c1-c1ncc(OC)c3[nH]ccc13)CN(c1ncc(C(F)(F)F)cn1)CC2 [Example 1.013] |
| 5 to 50 | CCc1cccc(CC)c1-n1nc2c(c1-c1c(F)cnc3[nH]ccc13)CN(c1ncc(C(F)(F)F)cn1)CC2 [Example 1.014] |
| 5 to 50 | CCc1cccc(CC)c1-n1nc2c(c1-c1nccc3[nH]ncc13)CN(c1ncc(C(F)(F)F)cn1)CC2 [Example 1.015] |
| > 500 | CCc1cccc(CC)c1-n1nc2c(c1-c1ccc3[nH]c(C)nc3c1)CN(c1ncc(C(F)(F)F)cn1)CC2 [Example 1.016] |
| > 500 | CCc1cccc(CC)c1-n1nc2c(c1-c1ccc3[nH]cnc3c1)CN(c1ncc(C(F)(F)F)cn1)CC2 [Example 1.017] |
| 5 to 50 | Cc1cccc(OCC(C)C)c1-n1nc2c(c1-c1ccc3[nH]ccc3c1)CN(C(=O)OC(C)(C)C)CC2 [Example 1.018] |
| 5 to 50 | CCc1cccc(CC)c1-n1nc2c(c1-c1cc(F)c(OC)c3[nH]c(F)nc13)CN(c1ncc(C(F)(F)F)cn1)CC2 [Example 1.019] |
| < 5 | CCc1cccc(CC)c1-n1nc2c(c1-c1ncc(C)c3[nH]ccc13)CN(c1ncc(C(F)(F)F)cn1)CC2 [Example 1.020] |
| 50 to 500 | CCc1cccc(CC)c1-n1nc2c(c1-c1cc(F)c(OC)c3[nH]c(Cl)nc13)CN(c1ncc(C(F)(F)F)cn1)CC2 [Example 1.021] |
| 50 to 500 | CCc1cccc(CC)c1-n1nc2c(c1-c1cncc3[nH]ccc13)CN(c1ncc(C(F)(F)F)cn1)CC2 [Example 1.022] |
| < 5 | CCc1cccc(CC)c1-n1nc2c(c1-c1cc(F)c(OC)c3[nH]cc(F)c13)CN(c1ncc(C(F)(F)F)cn1)CC2 [Example 1.023] |
| < 5 | CCOc1c(F)cc(-c2c3c(nn2-c2c(CC)cccc2CC)CCN(c2ncc(C(F)(F)F)cn2)C3)c2cc[nH]c12 [Example 1.024] |

| IC50 [nM] | SMILES |
| --- | --- |
| 50 to 500 | CCc1cccc(CC)c1-n1nc2c(c1-c1cc(Cl)cc3[nH]cnc13)CN(c1ncc(C(F)(F)F)cn1)CC2 [Example 1.025] |
| 5 to 50 | CCc1cccc(CC)c1-n1nc2c(c1-c1ncnc3[nH]ccc13)CN(c1ncc(C(F)(F)F)cn1)CC2 [Example 1.026] |
| 5 to 50 | CCc1cccc(CC)c1-n1nc2c(c1-c1cnc(C)c3[nH]ccc13)CN(c1ncc(C(F)(F)F)cn1)CC2 [Example 1.027] |
| > 500 | CCc1cccc(CC)c1-n1nc2c(c1-c1cc(F)c(OC)c3[nH]c(CO)nc13)CN(c1ncc(C(F)(F)F)cn1)CC2 [Example 1.028] |
| 5 to 50 | CCc1cccc(CC)c1-n1nc2c(c1-c1ccnc3[nH]ccc13)CN(c1ncc(C(F)(F)F)cn1)CC2 [Example 1.029] |
| < 5 | CCc1cccc(CC)c1-n1nc2c(c1-c1cc(F)c(CO)c3[nH]cnc13)CN(c1ncc(C(F)(F)F)cn1)CC2 [Example 1.030] |
| 5 to 50 | CCc1cccc(CC)c1-n1nc2c(c1-c1nccc3[nH]ccc13)CN(c1ncc(C(F)(F)F)cn1)CC2 [Example 1.031] |
| < 5 | CCc1cccc(CC)c1-n1nc2c(c1-c1cc(F)c(OC)c3[nH]cc(Cl)c13)CN(c1ncc(C(F)(F)F)cn1)CC2 [Example 1.032] |
| 50 to 500 | CCc1cccc(CC)c1-n1nc2c(c1-c1cc(F)c(OC)c3[nH]ccc13)C(=O)N(c1ncc(C(F)(F)F)cn1)CC2 [Example 1.033] |
| > 500 | CCc1cccc(CC)c1-n1nc2c(c1-c1ccc(Cl)c3[nH]ccc13)C(=O)N(c1ncc(C(F)(F)F)cn1)CC2 [Example 1.034] |
| < 5 | CCc1cccc(CC)c1-n1nc2c(c1-c1ccc(Cl)c3[nH]cnc13)CN(c1ncc(C(F)(F)F)cn1)CC2 [Example 1.035] |
| < 5 | CCc1cccc(CC)c1-n1nc2c(c1-c1cc(F)c(OC)c3[nH]cnc13)CN(c1ncc(C(F)(F)F)cn1)CC2 [Example 1.036] |
| 5 to 50 | CCc1cccc(CC)c1-n1nc2c(c1-c1ccc3[nH]c(C)nc3c1Cl)CN(c1ncc(C(F)(F)F)cn1)CC2 [Example 1.037] |
| 5 to 50 | CCc1cccc(CC)c1-n1nc2c(c1-c1ccc(Cl)c3[nH]c(C)nc13)CN(c1ncc(C(F)(F)F)cn1)CC2 [Example 1.038] |
| 5 to 50 | CCc1cccc(CC)c1-n1nc2c(c1-c1ccc3[nH]ccc3c1)CN(c1ncc(C(F)(F)F)cn1)CC2 [Example 1.039] |
| 5 to 50 | CCc1cccc(CC)c1-n1nc2c(c1-c1cccc3[nH]ccc13)CN(c1ncc(C(F)(F)F)cn1)CC2 [Example 1.040] |
| < 5 | CCc1cccc(CC)c1-n1nc2c(c1-c1cc(F)c(Cl)c3[nH]ncc13)CN(c1ncc(C(F)(F)F)cn1)CC2 [Example 1.041] |
| 50 to 500 | CCc1cccc(CC)c1-n1nc2c(c1-c1cccc3[nH]c(C(F)(F)F)nc13)CN(c1ncc(C(F)(F)F)cn1)CC2 [Example 1.042] |
| 5 to 50 | CCc1cccc(CC)c1-n1nc2c(c1-c1cccc3[nH]cnc13)CN(c1ncc(C(F)(F)F)cn1)CC2 [Example 1.043] |
| < 5 | CCc1cccc(CC)c1-n1nc2c(c1-c1cc(Cl)c(OC)c3[nH]ccc13)CN(c1ncc(C(F)(F)F)cn1)CC2 [Example 1.044] |
| < 5 | CCc1cccc(CC)c1-n1nc2c(c1-c1c(F)cc(OC)c3[nH]ccc13)CN(c1ncc(C(F)(F)F)cc1F)CC2 [Example 1.045] |
| < 5 | CCc1cccc(CC)c1-n1nc2c(c1-c1c(F)cc(OC)c3[nH]ccc13)CN(c1ncc(C(F)(F)F)cn1)CC2 [Example 1.046] |
| 50 to 500 | CCc1cccc(CC)c1-n1nc2c(c1-c1ccc(C(=O)N(C)C)c3[nH]ccc13)CN(c1ncc(C(F)(F)F)cn1)CC2 [Example 1.047] |
